# Assay results as given in patent EP3282019A1, “[…] TREATMENT OF CANCER, IN […] L[…]” (priority 2016, dated 2018).
# Columns and labels:
# [1] = test system: NOTCH2 (N2^IC / Mastermind / CSL) transcription factor complex; test: EMSA of DNA-bound NOTCH2 complexes in nuclear extracts of CLL cells; assay type: cell-based, human
# Description: Preparation of nuclear extracts and EMSA: 3x10^7 cells were lysed in 1ml hypotonic buffer (10mM HEPES, pH 7.9; 1.5mM MgCl2; 10mM KCL) containing 0.15% NP-40 at 4°C for 10 min. The nuclear proteins were extracted from the nuclear fraction by resuspending the nuclei in 100µl extraction buffer (300mM KCl; 1.5mM MgCl2; 20mM HEPES pH 7.9; 0.2mM EDTA; 25% Glycerin) at 4°C for 20 min with constant agitation. The CSL site spanning EMSA probe was derived from the CD23a promoter (5'-[…]-3' (SEQ ID NO: 40) annealed with the reverse complementary strand). The N1^IC (bTAN 20) and N2^IC (C651.6DbHN) antibodies was obtained from the Developmental Studies Hybridoma Bank (University of Iowa, Department of Biological Science, Iowa City, IA). EMSA was performed essentially as described (Hubmann et al., 2010)
# CLL cells [2] = test: FACS detection of apoptosis (AnnexinV / propidium iodide) in CLL cells, PMA activation model; assay type: cell-based, human
# Description: Cell lines and culture: CLL cells were cultured in RPMI 1640 medium containing 10% fetal calf serum, 100U/ml penicillin and […] streptomycin at 37 °C, 7.5% CO2 in humidified atmosphere. The ex vivo CLL microenvironment model based on using primary human bone marrow stromal cells in co-culture with CLL cells was applied as previously described and was used for analysing the effect of gliotoxin, RO4929097, and blocking antibodies on CLL cells in a milieu resembling the situation in vivo (Shehata et al., 2004). The PMA activation model was used to analyse the function of PKC stimulation on the regulation of NOTCH2/NOTCH3 signalling in CLL cells.
# Flow cytometry (FACS) and detection of cell viability: Antibodies (CD5, CD19, CD20, CD23, CD49d, CD37, CD52, and 7-Aminoactinomycin D (7-AAD) were purchased from Becton Dickinson (San Jose, CA). Species- and isotype-matched irrelevant antibodies are used as controls. Flow cytometry was performed on a FACScan® using CellQuest Pro software version 5.2.1 (Becton Dickinson, San Jose, CA). Ultra high speed cell sorting was used to isolate CD5+/CD19+ CLL cells from normal B-cells (CD19+/CD5-) and T-cells (CD3+). AnnexinV, propidium iodide, and 7-AAD staining was performed to estimate the percentages of cells undergoing apoptosis. The overall effect on cell viability was calculated as the sum of early apoptotic (AnnexinV single positive; Ax+/PI-) and late apoptotic/necrotic (AnnexinV/propidium iodide double positive; Ax+/PI+) cells using a kit from Bender Med. Systems Inc. (Vienna, AT). Cell viability was evaluated by a nonisotopic MTT (3-(4,5-dimethylthiazolyl-2)-2,5-diphenyltetrazolium bromide) assay (Ez4U) in 96-well culture plates as described by the manufacturer (Biomedica, AT).
# [3] = test system: NOTCH and apoptosis related genes; test: semiquantitative RT-PCR of NOTCH and apoptosis related genes in CLL cells; assay type: cell-based, human; settings: for NOTCH3 expression / NR4A1 expression: Fig 3A, right panel
# Excerpt: PCR, RT-PCR, and Western blot analysis: Total RNA was extracted using the Trizol isolation system (Invitrogen/Life Technologies, Paisley, UK). Genomic DNA (gDNA) was extracted using the Wizard Genomic DNA extraction kit from Promega. M-MLV reverse transcriptase and GoTaq PCR kits (Promega, WI, USA) were used for semiquantitative reverse transcriptase polymerase chain reactions (RT-PCR).
# PCR and RT-PCR techniques (long range PCR using genomic DNA, semiquantitative RT-PCR), and western blotting (Modular Mini-Protean II system from Bio Rad) were used routinely according to standard protocols.
# CLL cells [4] = test: ex vivo CLL microenvironment model (co-culture with primary human bone marrow stromal cells)
# [5] = RO4929097 0.5µM, PMA-activated CLL cells expressing a GSI resistant form of nuclear NOTCH2
# [6] = chronic stimulation with PMA, after 3 days, CLL cells
structure (smiles),measurement,setting,value
C[C@H](NC(=O)Cc1cc(F)cc(F)c1)C(=O)N[C@H](C(=O)OC(C)(C)C)c1ccccc1 [DAPT],nuclear NOTCH2 activity,"[1]; 5µM DAPT, majority of CLL cases, Fig. 1A and B",no effect
same,sensitivity of DNA-bound NOTCH2 complexes to GSI,"[1]; majority of CLL cases, Fig. 2B",less sensitive/resistant
CC(C)(C(=O)NCC(F)(F)C(F)(F)F)C(=O)N[C@@H]1C(=O)Nc2ccccc2-c2ccccc21 [RO4929097],gliotoxin mediated apoptosis,"CLL cells [2]; RO4929097 0.5µM with gliotoxin 0.2µM, PMA-activated CLL cells expressing a GSI resistant form of nuclear NOTCH2, Fig 3B",counteracts
same,spontaneous apoptosis,"CLL cells [2]; RO4929097 0.5µM, PMA-activated CLL cells expressing a GSI resistant form of nuclear NOTCH2, Fig 3B",counteracts
same,NOTCH3 expression,[3]; [5],inhibits
same,NR4A1 expression,[3]; [5],inhibits
CCCCCCCCCCCCCC(=O)O[C@@H]1[C@@H](C)[C@@]2(O)[C@@H](C=C(CO)C[C@]3(O)C(=O)C(C)=C[C@@H]23)[C@@H]2C(C)(C)[C@]12OC(C)=O [PMA],expression of all NOTCH ligands,"[3]; PMA-activated CLL cells, Fig 2C, lane 4",downregulation
same,NOTCH3 expression,[3]; [6],upregulation
same,NR4A1 expression,[3]; [6],upregulation
CN1C(=O)[C@]23CC4=CC=C[C@H](O)[C@H]4N2C(=O)[C@@]1(CO)SS3 [gliotoxin],NOTCH2 at the transcription factor level,[1],inhibits NOTCH2 at the transcription factor level
same,NOTCH2 transactivation,[1],potent NOTCH2 transactivation inhibitor
same,assembly of the ternary NOTCH2 (N2^IC / Mastermind / CSL) transcription factor complex on DNA,[1],interferes with the assembly
same,apoptosis in CLL cells,CLL cells [2],efficiently induced apoptosis
same,protective effect of PMA on CLL cells,CLL cells [2],reversed the protective effect of PMA
same,NOTCH2 signalling,[3],rapidly inhibited
same,NOTCH3 mRNA expression,[3],upregulated
same,NR4A1 mRNA expression,[3],upregulated
same,co-expression of NOTCH3 and its ligand JAG2 (unstimulated cells) or DLL1 (PMA activated cells),[3],induced co-expression
same,anti-apoptotic effect of bone marrow stromal cells,CLL cells [4],could also overcome the anti-apoptotic effect
